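Results reflect a 48-hour exposure of cells in 96-well plates to compound at five concentrations. At the GI50, growth is halved. The concentration for full growth arrest is given as TGI.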
How the values were obtained:
Test in all cases: DTP human tumour cell line panel, 48 h
NCI/ADR-RES ovarian = tested on: NCI/ADR-RES ovarian
RXF 393 renal = tested on: RXF 393 renal
NCI-H226 lung = tested on: NCI-H226 lung
HOP-62 NSCLC = tested on: HOP-62 NSCLC
OVCAR-8 ovarian = tested on: OVCAR-8 ovarian
SN12C renal = tested on: SN12C renal
HCT-15 colon = tested on: HCT-15 colon
HCC-2998 colon = tested on: HCC-2998 colon
UACC-257 melanoma = tested on: UACC-257 melanoma
SF-295 CNS = tested on: SF-295 CNS
NCI-H522 lung = tested on: NCI-H522 lung
BT-549 breast = tested on: BT-549 breast
SF-539 CNS = tested on: SF-539 CNS
MDA-MB-231 breast = tested on: MDA-MB-231 breast
K-562 leukemia = tested on: K-562 leukemia
SW-620 colon = tested on: SW-620 colon
HT29 colon = tested on: HT29 colon
MOLT-4 leukemia = tested on: MOLT-4 leukemia
LOX IMVI melanoma = tested on: LOX IMVI melanoma
SK-OV-3 ovarian = tested on: SK-OV-3 ovarian
NCI-H23 lung = tested on: NCI-H23 lung
U251 CNS = tested on: U251 CNS
T-47D breast = tested on: T-47D breast
COLO 205 colon = tested on: COLO 205 colon
M14 melanoma = tested on: M14 melanoma
SR leukemia = tested on: SR leukemia
UO-31 renal = tested on: UO-31 renal
RPMI-8226 leukemia = tested on: RPMI-8226 leukemia
MALME-3M melanoma = tested on: MALME-3M melanoma
A498 renal = tested on: A498 renal
HS 578T breast = tested on: HS 578T breast
SNB-19 CNS = tested on: SNB-19 CNS
MDA-MB-435 = tested on: MDA-MB-435
EKVX NSCLC = tested on: EKVX NSCLC
NCI-H460 lung = tested on: NCI-H460 lung
OVCAR-5 ovarian = tested on: OVCAR-5 ovarian
KM12 colon = tested on: KM12 colon
CCRF-CEM leukemia = tested on: CCRF-CEM leukemia
HL-60(TB) leukemia = tested on: HL-60(TB) leukemia
MCF7 breast = tested on: MCF7 breast
OVCAR-3 ovarian = tested on: OVCAR-3 ovarian
HOP-92 NSCLC = tested on: HOP-92 NSCLC
SK-MEL-5 melanoma = tested on: SK-MEL-5 melanoma
CAKI-1 renal = tested on: CAKI-1 renal
OVCAR-4 ovarian = tested on: OVCAR-4 ovarian
DU-145 prostate = tested on: DU-145 prostate
HCT-116 colon = tested on: HCT-116 colon
ACHN renal = tested on: ACHN renal
A549 NSCLC = tested on: A549 NSCLC
SK-MEL-2 melanoma = tested on: SK-MEL-2 melanoma
PC-3 prostate = tested on: PC-3 prostate
786-0 renal = tested on: 786-0 renal
SF-268 CNS = tested on: SF-268 CNS
IGROV1 ovarian = tested on: IGROV1 ovarian
TK-10 renal = tested on: TK-10 renal
SK-MEL-28 melanoma = tested on: SK-MEL-28 melanoma
UACC-62 melanoma = tested on: UACC-62 melanoma
SNB-75 CNS = tested on: SNB-75 CNS

Work on `Cc1cnc2n(c1=O)Cc1ccccc1CO2` yielded a GI50 (NCI/ADR-RES ovarian) of 22.7 µM, a TGI (NCI/ADR-RES ovarian) of 71.4 µM and a GI50 (RXF 393 renal) of 15.2 µM. The TGI (RXF 393 renal) was 36.8 µM, the GI50 (NCI-H226 lung) was 20.4 µM and the TGI (NCI-H226 lung) was 52.5 µM. The GI50 (HOP-62 NSCLC) was 20 µM, the TGI (HOP-62 NSCLC) was 38 µM and the GI50 (OVCAR-8 ovarian) was 23.4 µM. For the same compound, the TGI (OVCAR-8 ovarian) was 82.5 µM, the GI50 (SN12C renal) was 23.2 µM and the TGI (SN12C renal) was 71.3 µM. It also gave a GI50 (HCT-15 colon) of 17.1 µM, a TGI (HCT-15 colon) of 33.8 µM and a GI50 (HCC-2998 colon) of 16 µM. For the same compound, the TGI (HCC-2998 colon) was 31.4 µM, the GI50 (UACC-257 melanoma) was 23 µM and the TGI (UACC-257 melanoma) was 66 µM. For the same compound, the GI50 (SF-295 CNS) was 33.2 µM, the TGI (SF-295 CNS) was over 100 µM and the GI50 (NCI-H522 lung) was 3.8 µM. It also gave a TGI (NCI-H522 lung) of 18.8 µM, a GI50 (BT-549 breast) of 15.5 µM and a TGI (BT-549 breast) of 32.8 µM. The GI50 (SF-539 CNS) was 24 µM, the TGI (SF-539 CNS) was 60 µM and the GI50 (MDA-MB-231 breast) was 11.8 µM. The TGI (MDA-MB-231 breast) was 32 µM, the GI50 (K-562 leukemia) was 18.7 µM and the TGI (K-562 leukemia) was 48.3 µM. It also gave a GI50 (SW-620 colon) of 17.3 µM, a TGI (SW-620 colon) of 49 µM and a GI50 (HT29 colon) of 26.3 µM. For the same compound, the TGI (HT29 colon) was 96.9 µM, the GI50 (MOLT-4 leukemia) was 18.3 µM and the TGI (MOLT-4 leukemia) was 39.3 µM. It also gave a GI50 (LOX IMVI melanoma) of 14.6 µM, a TGI (LOX IMVI melanoma) of 31.9 µM and a GI50 (SK-OV-3 ovarian) of 41 µM. For the same compound, the TGI (SK-OV-3 ovarian) was over 100 µM, the GI50 (NCI-H23 lung) was 21.1 µM and the TGI (NCI-H23 lung) was 60.5 µM. It also gave a GI50 (U251 CNS) of 15.7 µM, a TGI (U251 CNS) of 29.9 µM and a GI50 (T-47D breast) of 6.79 µM. It also gave a TGI (T-47D breast) of 29.3 µM, a GI50 (COLO 205 colon) of 17.1 µM and a TGI (COLO 205 colon) of 37.1 µM. The GI50 (M14 melanoma) was 14.5 µM, the TGI (M14 melanoma) was 29.1 µM and the GI50 (SR leukemia) was 9.11 µM. For the same compound, the TGI (SR leukemia) was 27.9 µM, the GI50 (UO-31 renal) was 18.2 µM and the TGI (UO-31 renal) was 44.5 µM. It also gave a GI50 (RPMI-8226 leukemia) of 13.1 µM, a TGI (RPMI-8226 leukemia) of 41 µM and a GI50 (MALME-3M melanoma) of 19.8 µM. For the same compound, the TGI (MALME-3M melanoma) was 44.9 µM, the GI50 (A498 renal) was 19.5 µM and the TGI (A498 renal) was 45.4 µM. For the same compound, the GI50 (HS 578T breast) was 23.9 µM, the TGI (HS 578T breast) was over 100 µM and the GI50 (SNB-19 CNS) was 21.7 µM. The TGI (SNB-19 CNS) was 61.6 µM, the GI50 (MDA-MB-435) was 25.9 µM and the TGI (MDA-MB-435) was over 72.1 µM. The GI50 (EKVX NSCLC) was 20.8 µM, the TGI (EKVX NSCLC) was 45.1 µM and the GI50 (NCI-H460 lung) was 17.7 µM. The TGI (NCI-H460 lung) was 40.2 µM, the GI50 (OVCAR-5 ovarian) was 27.4 µM and the TGI (OVCAR-5 ovarian) was over 92.4 µM. For the same compound, the GI50 (KM12 colon) was 18 µM, the TGI (KM12 colon) was 34.3 µM and the GI50 (CCRF-CEM leukemia) was 2.35 µM. It also gave a TGI (CCRF-CEM leukemia) of 10.5 µM, a GI50 (HL-60(TB) leukemia) of 15.5 µM and a TGI (HL-60(TB) leukemia) of 35.1 µM. It also gave a GI50 (MCF7 breast) of 10.6 µM, a TGI (MCF7 breast) of 28.1 µM and a GI50 (OVCAR-3 ovarian) of 16.6 µM. The TGI (OVCAR-3 ovarian) was 34.3 µM, the GI50 (HOP-92 NSCLC) was 19.3 µM and the TGI (HOP-92 NSCLC) was 44.3 µM. The GI50 (SK-MEL-5 melanoma) was 15.4 µM, the TGI (SK-MEL-5 melanoma) was 29.5 µM and the GI50 (CAKI-1 renal) was 16.9 µM. For the same compound, the TGI (CAKI-1 renal) was 32.5 µM, the GI50 (OVCAR-4 ovarian) was 22 µM and the TGI (OVCAR-4 ovarian) was 64.1 µM. It also gave a GI50 (DU-145 prostate) of 16.6 µM, a TGI (DU-145 prostate) of 32.1 µM and a GI50 (HCT-116 colon) of 17.2 µM. It also gave a TGI (HCT-116 colon) of 43.8 µM, a GI50 (ACHN renal) of 17.4 µM and a TGI (ACHN renal) of 33.8 µM. The GI50 (A549 NSCLC) was 28.7 µM, the TGI (A549 NSCLC) was over 100 µM and the GI50 (SK-MEL-2 melanoma) was 0.568 µM. For the same compound, the TGI (SK-MEL-2 melanoma) was 2.04 µM, the GI50 (PC-3 prostate) was 18.7 µM and the TGI (PC-3 prostate) was 43.7 µM. For the same compound, the GI50 (786-0 renal) was 18.8 µM, the TGI (786-0 renal) was 39.4 µM and the GI50 (SF-268 CNS) was 20.3 µM. It also gave a TGI (SF-268 CNS) of 67.6 µM, a GI50 (IGROV1 ovarian) of 14.4 µM and a TGI (IGROV1 ovarian) of 32.5 µM. It also gave a GI50 (TK-10 renal) of 20.9 µM, a TGI (TK-10 renal) of 49.4 µM and a GI50 (SK-MEL-28 melanoma) of 20.9 µM. For the same compound, the TGI (SK-MEL-28 melanoma) was 45.1 µM, the GI50 (UACC-62 melanoma) was 14.7 µM and the TGI (UACC-62 melanoma) was 28.7 µM. It also gave a GI50 (SNB-75 CNS) of 25.3 µM and a TGI (SNB-75 CNS) of over 64 µM.

Source: PubChem BioAssay (NCI)
